Measurements reported in ChEMBL document CHEMBL1201861, “Genomics of Drug Sensitity in Cancer screening data, Wellcome Trust Sanger Institute”.

How the values were obtained:
Assay in all cases: cells
DK-MG = type: functional, cell-based, Homo sapiens; details: Homo sapiens, DK-MG;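 further: growth inhibition of DK-MG cells, read out with a cell viability assay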
Description: SANGER: Inhibition of human DK-MG cell growth in a cell viability assay.

EC-GI-10 = type: functional, cell-based, Homo sapiens; details: Homo sapiens, EC-GI-10
Description: SANGER: Inhibition of human EC-GI-10 cell growth in a cell viability assay.

EKVX = type: functional, cell-based, Homo sapiens; details: Homo sapiens, EKVX;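 further: growth inhibition of human EKVX cells, read out with a cell viability assay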
Description: SANGER: Inhibition of human EKVX cell growth in a cell viability assay.

ES1 = type: functional, cell-based, Homo sapiens; details: Homo sapiens, ES1;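 further: growth inhibition of ES1 cells, read out with a cell viability assay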
Description: SANGER: Inhibition of human ES1 cell growth in a cell viability assay.

GCIY = type: functional, cell-based, Homo sapiens; details: Homo sapiens, GCIY;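 further: growth inhibition of the human GCIY cell line, read out by a cell viability assay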
Description: SANGER: Inhibition of human GCIY cell growth in a cell viability assay.

GCT = type: functional, cell-based, Homo sapiens; details: Homo sapiens, GCT;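 further: GCT cell line proliferation inhibition, read out with a cell viability assay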
Description: SANGER: Inhibition of human GCT cell growth in a cell viability assay.

HCC1187 = type: functional, cell-based, Homo sapiens; details: Homo sapiens, HCC1187;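 further: growth inhibition of HCC1187 cells, read out with a cell viability assay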
Description: SANGER: Inhibition of human HCC1187 cell growth in a cell viability assay.

HN = type: functional, cell-based, Homo sapiens; details: Homo sapiens, HN
Description: SANGER: Inhibition of human HN cell growth in a cell viability assay.

HSC-3 = type: functional, cell-based, Homo sapiens; details: Homo sapiens, HSC-3
Description: SANGER: Inhibition of human HSC-3 cell growth in a cell viability assay.

HT1197 = type: functional, cell-based, Homo sapiens, HT-1197; details: Homo sapiens, HT1197
Description: SANGER: Inhibition of human HT-1197 cell growth in a cell viability assay.

HT-3 = type: functional, cell-based, Homo sapiens; details: Homo sapiens, HT-3;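 further: growth inhibition measured with a cell viability readout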
Description: SANGER: Inhibition of human HT-3 cell growth in a cell viability assay.

HuTu80 = type: functional, cell-based, Homo sapiens, HUTU-80; details: Homo sapiens, HuTu80;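 further: growth inhibition of HuTu80 human cells, determined with a cell viability readout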
Description: SANGER: Inhibition of human HUTU-80 cell growth in a cell viability assay.

KM12 = type: functional, cell-based, Homo sapiens; details: Homo sapiens, KM12;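 further: KM12 cell growth inhibition, read out with a cell viability assay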
Description: SANGER: Inhibition of human KM12 cell growth in a cell viability assay.

KYSE-180 = type: functional, cell-based, Homo sapiens; details: Homo sapiens, KYSE-180;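 further: growth inhibition of KYSE-180 cells, read out with a cell viability assay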
Description: SANGER: Inhibition of human KYSE-180 cell growth in a cell viability assay.

KYSE-520 cell line = type: functional, cell-based, Homo sapiens; details: Homo sapiens, KYSE-520;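 further: growth inhibition of human KYSE-520 cells, read out with a viability assay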
Description: SANGER: Inhibition of human KYSE-520 cell growth in a cell viability assay.

L-428 = type: functional, cell-based; details: Homo sapiens
Description: SANGER: Inhibition of human L-428 cell growth in a cell viability assay.

LAN-6 = type: functional, cell-based, Homo sapiens; details: Homo sapiens, LAN-6;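 further: growth inhibition of LAN-6 cells, determined with a cell viability assay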
Description: SANGER: Inhibition of human LAN-6 cell growth in a cell viability assay.

LB1047-RCC = type: functional, cell-based, Homo sapiens; details: Homo sapiens, LB1047-RCC;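 further: inhibition of cell growth, determined with a cell viability assay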
Description: SANGER: Inhibition of human LB1047-RCC cell growth in a cell viability assay.

LU-99A = type: functional, cell-based, Homo sapiens; details: Homo sapiens, LU-99A;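 further: growth inhibition of LU-99A cells, read out with a cell viability assay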
Description: SANGER: Inhibition of human LU-99A cell growth in a cell viability assay.

ME-180 = type: functional, cell-based; details: Homo sapiens;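 further: cell viability assay measuring growth inhibition of ME-180 cells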
Description: SANGER: Inhibition of human ME-180 cell growth in a cell viability assay.

MEG-01 = type: functional, cell-based; details: Homo sapiens;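 further: growth inhibition of MEG-01 cells, read out by a cell viability assay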
Description: SANGER: Inhibition of human MEG-01 cell growth in a cell viability assay.

MOLT-16 = type: functional, cell-based; details: Homo sapiens;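 further: growth inhibition of human MOLT-16 cells, read out with a cell viability assay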
Description: SANGER: Inhibition of human MOLT-16 cell growth in a cell viability assay.

NCI-H1770 = type: functional, cell-based; details: Homo sapiens;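 further: growth inhibition of NCI-H1770 cells determined with a viability readout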
Description: SANGER: Inhibition of human NCI-H1770 cell growth in a cell viability assay.

NCI-H1838 = type: functional, cell-based, Homo sapiens; details: Homo sapiens, NCI-H1838;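 further: growth inhibition of NCI-H1838 cells, determined with a cell viability readout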
Description: SANGER: Inhibition of human NCI-H1838 cell growth in a cell viability assay.

NCI-H2052 = type: functional, cell-based, Homo sapiens; details: Homo sapiens, NCI-H2052;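 further: growth inhibition of NCI-H2052 cells, read out with a cell viability assay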
Description: SANGER: Inhibition of human NCI-H2052 cell growth in a cell viability assay.

NCI-H226 = type: functional, cell-based, Homo sapiens; details: Homo sapiens, NCI-H226;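 further: cell viability read-out used to gauge growth inhibition of the cells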
Description: SANGER: Inhibition of human NCI-H226 cell growth in a cell viability assay.

NCI-H520 = type: functional, cell-based, Homo sapiens; details: Homo sapiens, NCI-H520;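 further: growth inhibition of NCI-H520 cells, measured by a cell viability assay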
Description: SANGER: Inhibition of human NCI-H520 cell growth in a cell viability assay.

NCI-H526 = type: functional, cell-based; details: Homo sapiens;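 further: growth inhibition of the human NCI-H526 cell line, measured by a cell viability assay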
Description: SANGER: Inhibition of human NCI-H526 cell growth in a cell viability assay.

NCI-H82 = type: functional, cell-based; details: Homo sapiens;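 further: growth inhibition of NCI-H82 cells, measured with a cell viability readout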
Description: SANGER: Inhibition of human NCI-H82 cell growth in a cell viability assay.

OAW-28 = type: functional, cell-based, Homo sapiens; details: Homo sapiens, OAW-28;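 further: growth inhibition of OAW-28 cells, read out with a cell viability assay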
Description: SANGER: Inhibition of human OAW-28 cell growth in a cell viability assay.

OE19 = type: functional, cell-based, Homo sapiens; details: Homo sapiens, OE19;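 further: growth inhibition of OE19 cells, measured through a cell viability read-out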
Description: SANGER: Inhibition of human OE19 cell growth in a cell viability assay.

Panc1005 = type: functional, cell-based, Homo sapiens; details: Homo sapiens, Panc1005;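 further: growth inhibition of human PANC-10-05 cells, measured by a cell viability assay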
Description: SANGER: Inhibition of human PANC-10-05 cell growth in a cell viability assay.

RERF-LC-MS = type: functional, cell-based, Homo sapiens; details: Homo sapiens, RERF-LC-MS;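 further: growth inhibition of human RERF-LC-MS cells, read out by a cell viability assay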
Description: SANGER: Inhibition of human RERF-LC-MS cell growth in a cell viability assay.

SF-295 = type: functional, cell-based, Homo sapiens; details: Homo sapiens, SF-295; read-out: IC50;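 further: growth inhibition of SF-295 cells, read out with a cell viability assay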
Description: SANGER: Inhibition of human SF295 cell growth in a cell viability assay.

SK-MEL3 = type: functional, cell-based, Homo sapiens, SK-MEL-3; details: Homo sapiens, SK-MEL3;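 further: growth inhibition of human SK-MEL-3 cells, read out with a cell viability assay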
Description: SANGER: Inhibition of human SK-MEL-3 cell growth in a cell viability assay.

SK-N-FI = type: functional, cell-based, Homo sapiens; details: Homo sapiens, SK-N-FI;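 further: cell viability assay measuring growth inhibition of human SK-N-FI cells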
Description: SANGER: Inhibition of human SK-N-FI cell growth in a cell viability assay.

SNB-75 = type: functional, cell-based, Homo sapiens; details: Homo sapiens, SNB-75;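 further: cell viability assay measuring growth inhibition of human SNB-75 cells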
Description: SANGER: Inhibition of human SNB75 cell growth in a cell viability assay.

SW-620 = type: functional, cell-based, Homo sapiens; details: Homo sapiens, SW-620;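 further: growth inhibition of human SW-620 cells, measured by a cell viability assay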
Description: SANGER: Inhibition of human SW620 cell growth in a cell viability assay.

SW948 = type: functional, cell-based, Homo sapiens; details: Homo sapiens, SW948;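 further: growth inhibition of SW948 cells, read out with a cell viability assay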
Description: SANGER: Inhibition of human SW948 cell growth in a cell viability assay.

T84 = type: functional, cell-based, Homo sapiens; details: Homo sapiens, T84;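 further: growth inhibition measured with a cell viability readout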
Description: SANGER: Inhibition of human T84 cell growth in a cell viability assay.

639-V = type: functional, cell-based, Homo sapiens; details: Homo sapiens, 639-V;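 further: growth inhibition of 639-V cells, read out with a cell viability assay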
Description: SANGER: Inhibition of human 639-V cell growth in a cell viability assay.

A388 = type: functional, cell-based, Homo sapiens; details: Homo sapiens, A388;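 further: growth inhibition of human A388 cells, read out with a cell viability assay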
Description: SANGER: Inhibition of human A388 cell growth in a cell viability assay.

A-431 = type: functional, cell-based, Homo sapiens; details: Homo sapiens, A-431;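 further: growth inhibition of A-431 cells, determined with a cell viability read-out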
Description: SANGER: Inhibition of human A431 cell growth in a cell viability assay.

A673 = type: functional, cell-based, Homo sapiens; details: Homo sapiens, A673;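 further: growth inhibition of human A673 cells, read out through a cell viability assay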
Description: SANGER: Inhibition of human A673 cell growth in a cell viability assay.

BPH-1 = type: functional, cell-based, Homo sapiens; details: Homo sapiens, BPH-1;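 further: cell viability assay measuring growth inhibition of human BPH-1 cells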
Description: SANGER: Inhibition of human BPH-1 cell growth in a cell viability assay.

C8166 = type: functional, cell-based; details: Homo sapiens;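 further: growth inhibition of human C8166 cells measured by a cell viability assay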
Description: SANGER: Inhibition of human C8166 cell growth in a cell viability assay.

U-118-MG = type: functional, cell-based, Homo sapiens; details: Homo sapiens, U-118-MG
Description: SANGER: Inhibition of human U-118-MG cell growth in a cell viability assay.

U-87 MG = type: functional, cell-based, U-87MG ATCC; details: Homo sapiens;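 further: growth inhibition of the cells measured with a viability assay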
Description: SANGER: Inhibition of human U-87-MG cell growth in a cell viability assay.

UACC-893 = type: functional, cell-based, Homo sapiens; details: Homo sapiens, UACC-893
Description: SANGER: Inhibition of human UACC-893 cell growth in a cell viability assay.

CAMA-1 = type: functional, cell-based, Homo sapiens; details: Homo sapiens, CAMA-1;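 further: growth inhibition of CAMA-1 cells, read out with a cell viability assay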
Description: SANGER: Inhibition of human CAMA-1 cell growth in a cell viability assay.

Nc1ccn([C@@H]2O[C@H](CO)[C@@H](O)[C@@H]2O)c(=O)n1 [CYTARABINE]
IC50 (DK-MG): > 2 µM | IC50 (EC-GI-10): 0.557 µM | IC50 (EKVX): > 2 µM | IC50 (ES1): 0.013 µM | IC50 (GCIY): > 2 µM | IC50 (GCT): 0.856 µM | IC50 (HCC1187): > 2 µM | IC50 (HN): 0.221 µM | IC50 (HSC-3): 0.4 µM | IC50 (HT1197): > 2 µM | IC50 (HT-3): 1.38 µM | IC50 (HuTu80): 0.561 µM | IC50 (KM12): > 2 µM | IC50 (KYSE-180): 0.565 µM | IC50 (KYSE-520 cell line): > 2 µM | IC50 (L-428): > 2 µM | IC50 (LAN-6): > 2 µM | IC50 (LB1047-RCC): 0.108 µM | IC50 (LU-99A): 0.266 µM | IC50 (ME-180): > 2 µM | IC50 (MEG-01): > 2 µM | IC50 (MOLT-16): 0.0361 µM | IC50 (NCI-H1770): > 2 µM | IC50 (NCI-H1838): > 2 µM | IC50 (NCI-H2052): > 2 µM | IC50 (NCI-H226): > 2 µM | IC50 (NCI-H520): > 2 µM | IC50 (NCI-H526): > 2 µM | IC50 (NCI-H82): > 2 µM | IC50 (OAW-28): > 2 µM | IC50 (OE19): > 2 µM | IC50 (Panc1005): 0.802 µM | IC50 (RERF-LC-MS): 1.76 µM | IC50 (SF-295): > 2 µM | IC50 (SK-MEL3): > 2 µM | IC50 (SK-N-FI): > 2 µM | IC50 (SNB-75): > 2 µM | IC50 (SW-620): 0.349 µM | IC50 (SW948): > 2 µM | IC50 (T84): > 2 µM | IC50 (639-V): > 2 µM | IC50 (A388): 0.74 µM | IC50 (A-431): > 2 µM | IC50 (A673): 0.224 µM | IC50 (BPH-1): > 2 µM | IC50 (C8166): > 2 µM | IC50 (U-118-MG): > 2 µM | IC50 (U-87 MG): 1.74 µM | IC50 (UACC-893): > 2 µM | IC50 (CAMA-1): > 2 µM
